Experimental findings from patent publication US9616064B2, “Rho kinase inhibitors and methods of use” (H. LEE MOFFITT CANCER CENTER AND RESEARCH INSTITUTE, INC., priority 2011, dated 2017) are described below.

The inhibition is the relative decrease from the control value, in per cent. For orientation: IC50 means the concentration needed to halve the response being measured.

Structures can show the parent of a compound that is named as a salt. Where two headings read alike, the source gives them in different places. Where only a bound is given, the exact number is not on record here.

One experiment deals with ROCK1 (Homo sapiens (Human), UniProt Q13464). The experiment can be described thus: Z-lyte FRET assay to measure kinase inhibition, ROCK1. It counts as biochemical. To be noted: for inhibition at 50 µM: read-out: ROCK1 % inhibition @ 50 μM, 50 μM compound; for IC50: read-out: ROCK1 IC50.
In a further experiment the target is ROCK2 (Homo sapiens (Human), UniProt O75116). Kind of experiment: Z-lyte FRET assay to measure kinase inhibition, ROCK2. In kind it is biochemical.
Chain of ROCK2 (O75116 whole entry, species assumed): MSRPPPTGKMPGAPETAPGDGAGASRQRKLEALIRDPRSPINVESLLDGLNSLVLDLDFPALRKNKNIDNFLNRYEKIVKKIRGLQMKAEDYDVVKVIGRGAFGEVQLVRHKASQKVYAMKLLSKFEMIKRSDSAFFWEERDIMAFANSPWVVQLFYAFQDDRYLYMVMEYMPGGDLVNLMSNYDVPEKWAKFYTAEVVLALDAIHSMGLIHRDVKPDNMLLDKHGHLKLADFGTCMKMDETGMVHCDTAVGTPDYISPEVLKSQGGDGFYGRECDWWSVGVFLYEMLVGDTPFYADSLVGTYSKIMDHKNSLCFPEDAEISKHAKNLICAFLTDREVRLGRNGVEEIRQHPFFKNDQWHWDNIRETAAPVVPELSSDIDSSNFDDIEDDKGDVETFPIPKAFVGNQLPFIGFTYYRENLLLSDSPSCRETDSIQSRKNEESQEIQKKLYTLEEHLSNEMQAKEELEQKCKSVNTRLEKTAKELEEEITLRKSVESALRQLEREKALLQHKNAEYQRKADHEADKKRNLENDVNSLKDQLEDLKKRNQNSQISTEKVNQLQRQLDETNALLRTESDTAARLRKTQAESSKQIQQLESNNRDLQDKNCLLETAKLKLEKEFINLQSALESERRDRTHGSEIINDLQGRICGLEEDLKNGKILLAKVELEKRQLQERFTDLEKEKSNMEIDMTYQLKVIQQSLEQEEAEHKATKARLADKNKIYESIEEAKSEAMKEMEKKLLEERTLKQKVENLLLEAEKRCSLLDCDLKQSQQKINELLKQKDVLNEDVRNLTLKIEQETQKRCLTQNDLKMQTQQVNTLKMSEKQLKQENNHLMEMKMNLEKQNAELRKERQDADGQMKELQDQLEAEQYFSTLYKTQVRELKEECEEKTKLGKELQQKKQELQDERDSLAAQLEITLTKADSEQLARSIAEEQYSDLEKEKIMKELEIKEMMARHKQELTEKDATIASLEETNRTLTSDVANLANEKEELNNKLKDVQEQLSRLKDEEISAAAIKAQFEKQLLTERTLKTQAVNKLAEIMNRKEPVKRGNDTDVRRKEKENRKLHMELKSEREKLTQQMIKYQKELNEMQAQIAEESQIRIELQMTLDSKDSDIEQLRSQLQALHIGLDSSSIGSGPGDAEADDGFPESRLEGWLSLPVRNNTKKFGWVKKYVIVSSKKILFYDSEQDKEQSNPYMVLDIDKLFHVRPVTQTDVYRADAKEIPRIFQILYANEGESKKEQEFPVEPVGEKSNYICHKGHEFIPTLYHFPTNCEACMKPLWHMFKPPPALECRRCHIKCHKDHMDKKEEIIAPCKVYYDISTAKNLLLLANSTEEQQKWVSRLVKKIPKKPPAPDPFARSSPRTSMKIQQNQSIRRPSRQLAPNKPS

Chain of ROCK1 (Q13464 whole entry): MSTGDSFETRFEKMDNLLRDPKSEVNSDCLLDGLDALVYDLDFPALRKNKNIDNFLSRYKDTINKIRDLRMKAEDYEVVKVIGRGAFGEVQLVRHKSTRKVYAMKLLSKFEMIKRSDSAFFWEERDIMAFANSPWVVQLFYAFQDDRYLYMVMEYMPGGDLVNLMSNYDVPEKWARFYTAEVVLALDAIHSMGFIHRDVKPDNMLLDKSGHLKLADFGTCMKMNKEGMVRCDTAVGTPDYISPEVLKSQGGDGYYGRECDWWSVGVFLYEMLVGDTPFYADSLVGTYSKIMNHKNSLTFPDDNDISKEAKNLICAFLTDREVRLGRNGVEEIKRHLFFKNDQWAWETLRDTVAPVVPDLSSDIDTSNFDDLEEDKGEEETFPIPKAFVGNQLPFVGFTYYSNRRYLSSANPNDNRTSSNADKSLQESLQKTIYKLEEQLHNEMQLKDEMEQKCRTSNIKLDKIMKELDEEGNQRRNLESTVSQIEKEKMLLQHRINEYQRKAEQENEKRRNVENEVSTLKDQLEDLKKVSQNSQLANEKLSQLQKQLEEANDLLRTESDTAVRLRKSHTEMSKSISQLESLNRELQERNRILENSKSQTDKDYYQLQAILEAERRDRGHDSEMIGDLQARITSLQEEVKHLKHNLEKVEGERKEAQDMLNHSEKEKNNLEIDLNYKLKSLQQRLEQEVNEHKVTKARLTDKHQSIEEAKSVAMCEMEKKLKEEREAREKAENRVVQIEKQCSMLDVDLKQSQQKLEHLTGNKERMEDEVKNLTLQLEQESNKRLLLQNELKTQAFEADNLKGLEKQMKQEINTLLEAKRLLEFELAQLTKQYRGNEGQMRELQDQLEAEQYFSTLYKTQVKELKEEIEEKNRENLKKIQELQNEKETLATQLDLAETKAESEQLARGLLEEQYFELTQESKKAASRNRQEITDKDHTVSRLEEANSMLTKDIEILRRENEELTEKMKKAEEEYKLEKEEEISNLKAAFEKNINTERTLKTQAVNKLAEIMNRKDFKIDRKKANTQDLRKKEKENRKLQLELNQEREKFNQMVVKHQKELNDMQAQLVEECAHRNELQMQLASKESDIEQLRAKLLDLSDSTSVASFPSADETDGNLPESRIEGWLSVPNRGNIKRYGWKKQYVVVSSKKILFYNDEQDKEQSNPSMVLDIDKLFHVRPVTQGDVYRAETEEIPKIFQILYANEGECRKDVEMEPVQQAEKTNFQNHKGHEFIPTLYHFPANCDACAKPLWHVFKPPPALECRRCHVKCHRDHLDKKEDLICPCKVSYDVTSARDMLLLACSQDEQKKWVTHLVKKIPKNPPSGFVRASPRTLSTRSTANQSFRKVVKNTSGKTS

On to `Nc1nccc(Nc2ccccc2)n1`, for which, at ROCK1, the inhibition at 50 µM worked out at 47 ± 6% and the IC50 was 55.3 ± 13.4 µM. On ROCK2, this compound registered an IC50 greater than 50 µM.

In the case of `Nc1nccc(Nc2cccc(S(N)(=O)=O)c2)n1`, at ROCK1, the inhibition at 50 µM was determined as 90 ± 2% and the IC50 is 6.1 ± 0.6 µM. In addition, half-maximal inhibition against ROCK2 (IC50) required 6.1 ± 1.1 µM.

Regarding `NC(=O)c1ccc(Nc2ccnc(N)n2)cc1`, on ROCK1, the inhibition at 50 µM amounted to 82 ± 2% and the half-maximal inhibitory concentration (IC50) is 13.3 ± 1.7 µM. This compound returned an IC50 on ROCK2 of 11.5 ± 1.2 µM.

For the compound `NC(=O)c1cccc(Nc2ccnc(N)n2)c1`, on ROCK1, the inhibition at 50 µM turned out to be 54 ± 4% and the IC50 worked out at 38.9 ± 0.9 µM. On ROCK2, this compound gave an IC50 of 33.3 ± 2.8 µM.

In the case of `CS(=O)(=O)c1cccc(Nc2ccnc(N)n2)c1`, on ROCK1, the inhibition at 50 µM turned out to be 90 ± 1% and the IC50 was 6.7 ± 1.3 µM. Further, it took 7.3 ± 2 µM to reach half-maximal inhibition on ROCK2 (IC50).

`Nc1nccc(N2CCc3ccccc32)n1`: on ROCK1, the inhibition at 50 µM was determined as 85 ± 4% and the IC50 is 6.6 ± 0.5 µM. Further, the IC50 against ROCK2 stood at 3.4 ± 0.3 µM.

For the compound `CSc1ccc(Nc2ccnc(N)n2)cc1`, on ROCK1, the inhibition at 50 µM was 76 ± 2% and the IC50 came out at 21 ± 8.8 µM. The compound also gave an IC50 against ROCK2 of 17.1 ± 2.8 µM.

Turning to `COC(=O)c1cccc(Nc2ccnc(N)n2)c1`, on ROCK1, the inhibition at 50 µM came out at 63 ± 5% and the IC50 is 37 ± 8.8 µM. On ROCK2, this compound had an IC50 of 39.6 ± 6.2 µM.

As for `COC(=O)c1ccc(Nc2ccnc(N)n2)cc1`, the inhibition at 50 µM at ROCK1 stood at 77 ± 3%. In addition, the IC50 was found to be 20.5 ± 8 µM at ROCK1 and 13.9 ± 1.7 µM at ROCK2.

`Nc1nccc(N2CCCc3ccccc32)n1`: at ROCK1, the inhibition at 50 µM came out at 69 ± 1% and the IC50 came to 19.8 ± 4.3 µM. This compound also gave an IC50 against ROCK2 of 35.3 ± 5.1 µM.

Regarding `CC1Cc2ccccc2N1c1ccnc(N)n1` (centres unmarked), the inhibition at 50 µM on ROCK1 is 97 ± 1%. Besides, the IC50 worked out at 1.7 ± 0.2 µM at ROCK1 and 1.9 ± 0.4 µM on ROCK2.

Take `Nc1nccc(Nc2ccc([N+](=O)[O-])cc2)n1`: at ROCK1, the inhibition at 50 µM stood at 89 ± 2% and the IC50 was determined as 3.9 ± 0.3 µM. The compound further registered an IC50 against ROCK2 of 3.7 ± 0.8 µM.

`Nc1nccc(Nc2cccc([N+](=O)[O-])c2)n1`: at ROCK1, the inhibition at 50 µM was found to be 91 ± 2% and the IC50 worked out at 4.86 ± 0.6 µM. On ROCK2, this compound yielded an IC50 of 7.82 ± 2.3 µM.

As to `COc1cccc(Nc2ccnc(N)n2)c1`, the inhibition at 50 µM on ROCK1 was 63 ± 5%. Further, the IC50 on ROCK1 was 30.2 ± 2.5 µM; on ROCK2, 42.5 ± 6.7 µM.

With `Nc1nccc(Nc2ccc(OC(F)F)cc2)n1`, on ROCK1, the inhibition at 50 µM was found to be 64 ± 7% and the IC50 was found to be 30 ± 3.2 µM. Besides, on ROCK2, the IC50 turned out to be 23.4 ± 5.5 µM.

`Nc1nccc(N2CCc3cc(Cl)ccc32)n1`: the inhibition at 50 µM on ROCK1 came out at 73 ± 3%. Moreover, the IC50 at ROCK1 was determined as 1.5 ± 0.2 µM; on ROCK2 it was 1.2 ± 0.2 µM.

On to `Nc1nccc(-n2cnc3ccccc32)n1`, for which, at ROCK1, the inhibition at 50 µM came to 50 ± 1% and the IC50 came to 38.7 ± 1.6 µM. On ROCK2, this compound registered an IC50 of 37.4 ± 4 µM.

For `Nc1nccc(-n2ccc3ccccc32)n1`, on ROCK1, the inhibition at 50 µM was found to be 88 ± 4% and the IC50 worked out at 4.8 ± 0.3 µM. At ROCK2, this compound registered an IC50 of 4 ± 0.3 µM.

Consider `Nc1nccc(N2CCc3ccc([N+](=O)[O-])cc32)n1`, for which the inhibition at 50 µM on ROCK1 was found to be 51 ± 1%. The results for the IC50 on ROCK1 and against ROCK2 were 2.2 ± 0.3 µM and 1.8 ± 0.3 µM, respectively.

Turning to `COc1ccc2c(c1)c(CCNC(C)=O)cn2-c1ccnc(N)n1`, on ROCK1, the inhibition at 50 µM worked out at 89 ± 1%. The IC50 on ROCK1 stood at 4.9 ± 0.8 µM; against ROCK2, 5.3 ± 1.2 µM.

In the case of `Nc1nccc(-n2ccc3c(C(=O)NCc4ccccc4)cccc32)n1`, at ROCK1, the inhibition at 50 µM stood at 92 ± 1%. Besides, the IC50 at ROCK1 is 1 ± 0.5 µM; against ROCK2, 0.2 ± 0.1 µM.

With `Nc1nccc(-n2ccc3c(C(=O)NCCc4ccccc4)cccc32)n1`, at ROCK1, the inhibition at 50 µM was found to be 91 ± 1% and the IC50 stood at 2 ± 0.5 µM. Also, the concentration for half-maximal inhibition (IC50) at ROCK2 amounted to 0.5 ± 0.1 µM.

`Nc1nccc(-n2ccc3cc(NC(=O)CCc4ccccc4)ccc32)n1`: on ROCK1, the inhibition at 50 µM was found to be 60 ± 2%. The IC50 at ROCK1 worked out at 54.1 ± 1.1 µM; on ROCK2, 8.4 ± 2 µM.

For the compound `Nc1nccc(-n2ccc3cc(C(=O)NCCc4ccccc4)ccc32)n1`, the inhibition at 50 µM at ROCK1 worked out at 96 ± 1%. The IC50 amounted to 2.8 ± 0.3 µM on ROCK1 and 0.7 ± 0.3 µM against ROCK2.

Consider `Nc1nccc(-n2ccc3cc(C(=O)NCc4ccccc4)ccc32)n1`, for which, at ROCK1, the inhibition at 50 µM worked out at 96 ± 1%. Moreover, the IC50 on ROCK1 is 2.4 ± 1.6 µM; against ROCK2, 0.3 ± 0.1 µM.

In the case of `Nc1nccc(N2CCc3c(OCc4ccccc4)cccc32)n1`, at ROCK1, the inhibition at 50 µM was 90 ± 1% and the IC50 was found to be 0.48 ± 0.099 µM. Besides, the IC50 against ROCK2 stood at 0.25 ± 0.07 µM.

Turning to `Nc1nccc(-n2ccc3cc(OCc4ccccc4)ccc32)n1`, the inhibition at 50 µM at ROCK1 came out at 76 ± 2%. The IC50 on ROCK1 turned out to be 39 ± 6.9 µM; against ROCK2 it was 16.3 ± 5.5 µM.

As for `Nc1nccc(-n2ccc3c(OCCc4ccccc4)cccc32)n1`, on ROCK1, the inhibition at 50 µM is 63 ± 5% and the IC50 came to 53.6 ± 4.1 µM. The compound further had an IC50 at ROCK2 of 17 ± 1.7 µM.

Take `Nc1nccc(-n2ccc3c(OCc4ccc(Cl)cc4)cccc32)n1`: the inhibition at 50 µM on ROCK1 came to 71 ± 2%. Also, the half-inhibitory concentration (IC50) stood at 1.9 ± 0.42 µM at ROCK1 and 0.46 ± 0.08 µM on ROCK2.

Consider `Nc1nccc(-n2ccc3c(OCc4cccc(Cl)c4)cccc32)n1`, for which, at ROCK1, the inhibition at 50 µM was 44 ± 9% and the IC50 was 34.6 ± 8.2 µM. This compound also came in with an IC50 at ROCK2 of 32.7 ± 8.1 µM.

For the compound `Nc1nccc(-n2ccc3c(OCc4ccccc4Cl)cccc32)n1`, on ROCK1, the inhibition at 50 µM is 62 ± 6% and the IC50 was determined as 29.1 ± 8.2 µM. The compound also displayed an IC50 on ROCK2 of 19 ± 5.9 µM.

Regarding `COc1cccc(CNC(=O)c2cccc3c2ccn3-c2ccnc(N)n2)c1`, on ROCK1, the inhibition at 50 µM came out at 93 ± 7% and the half-maximal inhibitory concentration (IC50) worked out at 0.15 ± 0.02 µM. This compound also gave an IC50 on ROCK2 of 0.04 ± 0.03 µM.

Turning to `Nc1nccc(-n2ccc3c(C(=O)NCc4cccc(Cl)c4)cccc32)n1`, at ROCK1, the inhibition at 50 µM came out at 86 ± 4% and the IC50 was found to be 6.8 ± 3 µM. Moreover, the IC50 at ROCK2 came to 0.72 ± 0.13 µM.

For the compound `Nc1nccc(-n2ccc3c(C(=O)NCc4cccc(F)c4)cccc32)n1`, at ROCK1, the inhibition at 50 µM is 72 ± 10% and the IC50 was found to be 2.7 ± 1.78 µM. This compound showed a half-inhibitory concentration (IC50) against ROCK2 of 0.26 ± 0.09 µM.

Turning to `Nc1nccc(-n2ccc3c(C(=O)NCc4ccc(F)cc4)cccc32)n1`, at ROCK1, the inhibition at 50 µM amounted to 70 ± 3% and the 50% inhibitory concentration (IC50) stood at 10.5 ± 1 µM. In addition, it took 1.1 ± 0.49 µM to reach half-maximal inhibition on ROCK2 (IC50).

In the case of `COc1ccccc1CNC(=O)c1cccc2c1ccn2-c1ccnc(N)n1`, at ROCK1, the inhibition at 50 µM worked out at 69 ± 3% and the IC50 amounted to 6 ± 2 µM. The compound further returned an IC50 against ROCK2 of 1.8 ± 0.68 µM.

Regarding `C[C@H](NC(=O)c1cccc2c1ccn2-c1ccnc(N)n1)c1ccccc1`, on ROCK1, the inhibition at 50 µM came to 102.2 ± 0.2% and the IC50 is 3.43 ± 0.44 µM. For the same compound, the IC50 at ROCK2 was found to be 1.2 ± 0.32 µM.

On to `Nc1nccc(-n2ccc3c(C(=O)NCc4ccccc4F)cccc32)n1`, for which the inhibition at 50 µM on ROCK1 came out at 88.7 ± 5.96%. The half-inhibitory concentration (IC50) on ROCK1 came to 5.67 ± 0.32 µM; at ROCK2 it was 0.92 ± 0.48 µM.

Consider `COc1cccc(CNC(=O)c2cccc3c2CCN3c2ccnc(N)n2)c1`, for which, at ROCK1, the inhibition at 50 µM is 92.8 ± 3.64% and the IC50 came out at 1.62 ± 0.86 µM. Further, on ROCK2, inhibition was half-maximal at 0.25 ± 0.02 µM (IC50).

With `Nc1nccc(Nc2ccc(S(N)(=O)=O)cc2)n1` [1aa, 4-(2-Aminopyrimidin-4-ylamino)benzenesulfonamide hydrochloride], the IC50 on ROCK1 (hydrochloride) is 38 µM; on ROCK2 (hydrochloride), 25 µM.

For `Nc1nccc(Nc2ccc(S(N)(=O)=O)cc2)n1` [drawing 83], on ROCK1, the inhibition at 50 µM stood at 60 ± 3% and the IC50 worked out at 38.5 ± 3.4 µM. Moreover, on ROCK2, the IC50 came out at 25.5 ± 5.8 µM.

As to `CC(NC(=O)c1cccc2c1ccn2-c1ccnc(N)n1)c1ccccc1` (centres unmarked) [drawing 177], the inhibition at 50 µM on ROCK1 came to 85 ± 6%. The IC50 at ROCK1 is 1.7 ± 0.5 µM; at ROCK2, 0.21 ± 0.15 µM.

Turning to `CC(NC(=O)c1cccc2c1ccn2-c1ccnc(N)n1)c1ccccc1` (centres unmarked) [drawing 178], at ROCK1 (50 μM compound), the “ROCK1 % inhibition @ 50 μM” value is 105 ± 1%. Moreover, the IC50 was determined as 0.12 ± 0.02 µM on ROCK1 and 0.06 ± 0.02 µM against ROCK2.
